Results: ChEMBL document CHEMBL1201862, “PubChem BioAssay data set” (2004)
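Growth conditions: 96-well plates. Treatment: test compound, 48 hours, 5 concentrations. Analysis: linear interpolation between bracketing concentrations; unreached endpoints set to highest concentration. Abbreviation: GI50, concentration required for 50% inhibition of growth.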 The source made the active and inactive calls. Rule as the data show it: active = GI50 up to about 1.1 µM and inactive = higher.

Columns and labels:
Assay in all cases: inhibition of tumour cell growth, NCI panel, 48 h
[1] = system: 786-0
[2] = system: ACHN
[3] = system: EKVX
[4] = system: HL-60
[5] = system: IGROV-1
[6] = system: KM12
[7] = system: MOLT-4
[8] = system: Malme-3M
[9] = system: SF-268
[10] = system: SF-295
[11] = system: SK-MEL-2
[12] = system: SK-MEL-5
[13] = system: SK-OV-3
[14] = system: SNB-75
[15] = system: OVCAR-4
[16] = system: UACC-62

Compound	GI50 [1]	GI50 [2]	GI50 [3]	GI50 [4]	GI50 [5]	GI50 [6]	GI50 [7]	GI50 [8]	GI50 [9]	GI50 [10]	GI50 [11]	GI50 [12]	GI50 [13]	GI50 [14]	GI50 [15]	GI50 [16]
CC(c1cccc2ccccc12)/[N+]([O-])=C/c1ccccc1 (stereo not drawn)	> 100 µM (inactive)	> 100 µM (inactive)	70.8 µM (inactive)	99.5 µM (inactive)	> 100 µM (inactive)	> 100 µM (inactive)	> 100 µM (inactive)	> 100 µM (inactive)	> 100 µM (inactive)	> 100 µM (inactive)	> 100 µM (inactive)	> 100 µM (inactive)	> 100 µM (inactive)	75 µM (inactive)	–	–
COC(=O)/C=C/C1C(C(=O)OC)C2(C(=O)OC)CCC1(C(=O)OC)N2 (stereo not drawn)	> 100 µM (inactive)	> 100 µM (inactive)	> 100 µM (inactive)	> 100 µM (inactive)	> 100 µM (inactive)	> 100 µM (inactive)	> 100 µM (inactive)	> 100 µM (inactive)	> 100 µM (inactive)	> 100 µM (inactive)	> 100 µM (inactive)	> 100 µM (inactive)	> 100 µM (inactive)	> 100 µM (inactive)	> 100 µM (inactive)	> 100 µM (inactive)
O=c1[nH]c2c3ccccc3ccc2c2cc3c(cc12)OCO3	> 100 µM (inactive)	69.3 µM (inactive)	49.2 µM (inactive)	–	> 100 µM (inactive)	75.5 µM (inactive)	40 µM (inactive)	> 100 µM (inactive)	98.6 µM (inactive)	> 100 µM (inactive)	> 100 µM (inactive)	43.5 µM (inactive)	> 100 µM (inactive)	31.4 µM (inactive)	> 100 µM (inactive)	> 100 µM (inactive)
CCCCCCCCNC(=O)SCCCC	30.6 µM (inactive)	34.6 µM (inactive)	29.4 µM (inactive)	18.8 µM (inactive)	46.5 µM (inactive)	55 µM (inactive)	22.5 µM (inactive)	23.1 µM (inactive)	34.9 µM (inactive)	38 µM (inactive)	20.9 µM (inactive)	21.3 µM (inactive)	> 100 µM (inactive)	26.1 µM (inactive)	36.7 µM (inactive)	43.2 µM (inactive)
Nc1c([N+](=O)[O-])nc(Cl)c2nncn12	> 87.7 µM (inactive)	> 100 µM (inactive)	> 100 µM (inactive)	> 100 µM (inactive)	> 100 µM (inactive)	> 100 µM (inactive)	> 100 µM (inactive)	> 100 µM (inactive)	> 87.9 µM (inactive)	> 100 µM (inactive)	> 100 µM (inactive)	> 100 µM (inactive)	> 100 µM (inactive)	> 23.7 µM (inactive)	> 100 µM (inactive)	> 100 µM (inactive)
COC(=O)[C@@H]1Cc2c([nH]c3ccccc23)[C@H](c2ccccc2)N1	37.2 µM (inactive)	38.3 µM (inactive)	44.2 µM (inactive)	29.9 µM (inactive)	22.8 µM (inactive)	36.6 µM (inactive)	41.4 µM (inactive)	94 µM (inactive)	41.7 µM (inactive)	26.2 µM (inactive)	32.4 µM (inactive)	14.7 µM (inactive)	34.4 µM (inactive)	19.5 µM (inactive)	43.6 µM (inactive)	50.2 µM (inactive)
Clc1ccc(C2SCc3nc4ccccc4n32)cc1Cl (stereo not drawn)	13.8 µM (inactive)	13 µM (inactive)	14.4 µM (inactive)	5.9 µM (inactive)	17.3 µM (inactive)	11.8 µM (inactive)	17.1 µM (inactive)	18.8 µM (inactive)	15.9 µM (inactive)	11.9 µM (inactive)	16.2 µM (inactive)	9.08 µM (inactive)	21.4 µM (inactive)	3.25 µM (inactive)	13.1 µM (inactive)	13.2 µM (inactive)
CN1COc2c(n(C)c(=O)[nH]c2=O)C1	> 100 µM (inactive)	> 100 µM (inactive)	> 100 µM (inactive)	24.4 µM (inactive)	> 100 µM (inactive)	> 100 µM (inactive)	> 100 µM (inactive)	> 100 µM (inactive)	> 100 µM (inactive)	> 100 µM (inactive)	> 100 µM (inactive)	> 100 µM (inactive)	> 100 µM (inactive)	> 100 µM (inactive)	> 100 µM (inactive)	> 80 µM (inactive)
COc1ccc2nc(NC(=O)C(=O)C(C#N)c3ccc(Cl)c(Cl)c3)sc2c1 (stereo not drawn)	> 100 µM (inactive)	> 100 µM (inactive)	88.9 µM (inactive)	> 100 µM (inactive)	> 100 µM (inactive)	> 100 µM (inactive)	–	> 100 µM (inactive)	79.8 µM (inactive)	> 100 µM (inactive)	> 100 µM (inactive)	> 100 µM (inactive)	> 100 µM (inactive)	45.3 µM (inactive)	> 100 µM (inactive)	> 100 µM (inactive)
CCC(C(=O)c1ccccc1)C(CCCC(=O)Nc1c(C)cccc1C)N=O (stereo not drawn)	> 100 µM (inactive)	> 100 µM (inactive)	> 100 µM (inactive)	> 100 µM (inactive)	> 100 µM (inactive)	> 100 µM (inactive)	> 100 µM (inactive)	> 100 µM (inactive)	> 100 µM (inactive)	> 100 µM (inactive)	> 100 µM (inactive)	> 100 µM (inactive)	> 100 µM (inactive)	> 100 µM (inactive)	> 100 µM (inactive)	> 100 µM (inactive)
CC(C)C(=O)/C=C/c1ccccc1	46.5 µM (inactive)	81.5 µM (inactive)	–	42.3 µM (inactive)	> 100 µM (inactive)	69.7 µM (inactive)	54.3 µM (inactive)	–	> 100 µM (inactive)	91.2 µM (inactive)	> 100 µM (inactive)	67.3 µM (inactive)	> 100 µM (inactive)	> 100 µM (inactive)	> 100 µM (inactive)	87.3 µM (inactive)
O=C(c1ccc(O)cc1)C1c2c3c(cc(O)c2C(c2ccc(O)cc2)C1c1cc(O)cc(O)c1)OC(c1ccc(O)cc1)C3c1cc2c(cc1O)OC(c1ccc(O)cc1)C2c1cc(O)cc(O)c1 (stereo not drawn)	> 12.5 µM (inactive)	> 12.5 µM (inactive)	> 12.5 µM (inactive)	> 12.5 µM (inactive)	–	> 12.5 µM (inactive)	> 12.5 µM (inactive)	> 12.5 µM (inactive)	> 12.5 µM (inactive)	–	> 12.5 µM (inactive)	> 12.5 µM (inactive)	–	> 12.5 µM (inactive)	> 12.5 µM (inactive)	0.065 µM (active)
CSc1nnc(CCC(=O)Nc2c(C)cccc2C)o1	> 100 µM (inactive)	–	> 100 µM (inactive)	> 100 µM (inactive)	> 100 µM (inactive)	> 100 µM (inactive)	> 100 µM (inactive)	> 100 µM (inactive)	> 100 µM (inactive)	> 100 µM (inactive)	> 100 µM (inactive)	> 100 µM (inactive)	> 100 µM (inactive)	91.6 µM (inactive)	> 100 µM (inactive)	> 100 µM (inactive)
